For 21 molecules, EC50 results are on record in patent US8563714B2, “Bridged spiro [2.4] heptane derivatives as ALX receptor and/or FPRL2 agonists” (Actelion Pharmaceuticals Ltd., priority 2009, dated 2013).

The target in assay [1] is T1, human ALX receptor (Homo sapiens, UniProt P25090).
T1 construct: expressed in transfected cells; host or cells: HEK293 (HEK293-hALXR-Gα16)
T1 sequence (P25090 1-351): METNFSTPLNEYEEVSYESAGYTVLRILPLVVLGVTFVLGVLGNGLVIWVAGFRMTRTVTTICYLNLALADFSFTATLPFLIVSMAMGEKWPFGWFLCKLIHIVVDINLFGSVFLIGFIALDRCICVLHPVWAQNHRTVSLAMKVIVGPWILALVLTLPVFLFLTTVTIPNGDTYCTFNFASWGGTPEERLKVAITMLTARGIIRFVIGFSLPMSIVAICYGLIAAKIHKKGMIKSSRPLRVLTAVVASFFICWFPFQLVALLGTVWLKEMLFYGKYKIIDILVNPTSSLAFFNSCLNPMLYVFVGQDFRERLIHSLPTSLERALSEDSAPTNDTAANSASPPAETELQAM
Briefly: Intracellular calcium measurements (FLIPR), agonistic activity in HEK293-hALXR-Gα16 cells. The format is cell-based. The note with it: Fluo-4 calcium FLIPR, normalized to WKYMVm 10 nM. In outline:
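Agonist-induced calcium flux was recorded by FLIPR (488/540 nm) in HEK293-hALXR-Gα16 cells pre-loaded with Fluo-4 AM (1 μM, 60 min, 37°C). Peak signal above baseline, after subtracting buffer addition, was expressed relative to WKYMVm at 10 nM final.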

Assay [2] addresses T2, human FPRL2 (Homo sapiens, UniProt P25089).
T2 construct: expressed in transfected cells; host or cells: HEK293 (HEK293-hFPRL2-Gα16)
T2 sequence (P25089 1-353): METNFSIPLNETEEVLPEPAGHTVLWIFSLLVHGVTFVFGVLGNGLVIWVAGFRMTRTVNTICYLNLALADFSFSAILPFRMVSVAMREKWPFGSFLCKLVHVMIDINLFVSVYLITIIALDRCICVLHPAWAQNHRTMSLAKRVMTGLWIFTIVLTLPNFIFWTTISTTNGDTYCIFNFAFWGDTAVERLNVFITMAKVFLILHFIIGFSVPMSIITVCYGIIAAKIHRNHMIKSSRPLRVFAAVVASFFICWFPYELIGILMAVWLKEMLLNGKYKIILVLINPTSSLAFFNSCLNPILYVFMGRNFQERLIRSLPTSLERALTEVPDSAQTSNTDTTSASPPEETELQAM
Briefly: Intracellular calcium measurements (FLIPR), agonistic activity in HEK293-hFPRL2-Gα16 cells. The assay is classed as cell-based. To be noted: Fluo-4 calcium FLIPR, normalized to GLY14-Humanin 100 nM. The essentials: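 Peak values after baseline subtraction are expressed relative to 100 nM Gly14-Humanin; compounds diluted in assay buffer from 10 mM DMSO stocks.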

As for `CC(C)(C)OC(=O)N1CC(NC(=O)[C@H]2[C@H](C(=O)Nc3ccc(Br)cc3)[C@@H]3C=C[C@H]2C32CC2)C1` (racemic) [Example 98, (5R*)—N^5-(4-Bromophenyl)-(6R*)—N^6—(N-tert-butoxycarbonyl-azetidin-3-yl)-(4S*,7R*)-[4,7-ethenylene-spiro[2.4]heptane]-5,6-dicarboxamide], the EC50 in assay [1] was found to be 477 nM; in assay [2], 582 nM.
As to `O=C(NCCCCN1CCCC1)[C@H]1[C@H](C(=O)Nc2nc(-c3ccc(Cl)cc3)cs2)[C@@H]2C=C[C@H]1C21CC1` (racemic) [Example 150, (5R*)—N^5-(4-(4-Chlorophenyl)-thiazol-2-yl)-(6R*)—N^6-(4-pyrrolidin-1-yl-butyl)-(4S*,7R*)-[4,7-ethenylene-spiro[2.4]heptane]-5,6-dicarboxamide], the 50% effective concentration (EC50) in assay [1] was 8440 nM; in assay [2], 110 nM.
For the molecule `COCCNC(=O)[C@H]1[C@H](C(=O)Nc2ccc(Br)cc2)[C@@H]2C=C[C@H]1C21CC1` [Example 31, (5R)—N^5-(4-Bromophenyl)-(6R)—N^6-(2-methoxy-ethyl)-(4S,7R)-[4,7-ethenylene-spiro[2.4]heptane]-5,6-dicarboxamide], the 50% effective concentration (EC50) in assay [1] is 5 nM; in assay [2], 1410 nM.
For the molecule `O=C(NCCCCN1CCCC1)[C@H]1[C@H](C(=O)Nc2ccc(Br)nc2)[C@@H]2CC[C@H]1C21CC1` [Example 279, (5R)—N^5-(2-Bromopyrid-5-yl)-(6R)—N^6-(4-pyrrolidino-butyl)-(4S,7R)-[4,7-ethylene-spiro[2.4]heptane]-5,6-dicarboxamide], the values for the EC50 in assay [1] and in assay [2] were 1.3 nM and 62 nM, respectively.
Regarding `CNCCNC(=O)[C@H]1[C@H](C(=O)NCc2ccc(Br)cc2)[C@@H]2C=C[C@H]1C21CC1` (racemic) [Example 305, (5R*)—N^5-(4-Bromophenyl-methyl)-(6R*)—N^6-(2-methylamino-ethyl)-(4S*,7R*)-[4,7-ethenylene-spiro[2.4]heptane]-5,6-dicarboxamide], the EC50 in assay [1] came out at 350 nM; in assay [2], 2050 nM.
With `O=C(NC1CNC1)[C@H]1[C@H](C(=O)Nc2ncc(Br)s2)[C@@H]2CC[C@H]1C21CC1` [Example 419, (5R)—N^5-(5-Bromothiazol-2-yl)-(6R)—N^6-(azetidin-3-yl)-(4S,7R)-[4,7-ethylene-spiro[2.4]heptane]-5,6-dicarboxamide], the EC50 in assay [1] is 57 nM; in assay [2], 2290 nM.
Turning to `CC(C)CCN1CCC(NC(=O)[C@H]2[C@H](C(=O)Nc3ccc(Br)cc3)[C@@H]3C=C[C@H]2C32CC2)CC1` (racemic) [Example 69, (5R*)—N^5-(4-Bromophenyl)-(6R*)—N^6—(N-(3-methyl-butyl)-piperidin-4-yl)-(4S*,7R*)-[4,7-ethenylene-spiro[2.4]heptane]-5,6-dicarboxamide], the concentration giving a half-maximal response (EC50) in assay [1] came to 58 nM; in assay [2] it was 708 nM.
On to `O=C(NCCCO)[C@H]1[C@H](C(=O)Nc2ccc(Br)cc2)[C@@H]2C=C[C@H]1C21CC1` [Example 12, (5R)—N^5-(4-Bromophenyl)-(6R)—N^6-(3-hydroxy-propyl)-(4S,7R)-[4,7-ethenylene-spiro[2.4]heptane]-5,6-dicarboxamide], for which the EC50 in assay [1] stood at 1 nM; in assay [2] it was 1300 nM.
As for `NCCCCCNC(=O)C1C(C(=O)Nc2ncc(Br)s2)C2C=CC1C21CC1` [Example 322, (5R)—N^5-(5-Bromo-thiazol-2-yl)-(6R)—N^6-(5-amino-pentyl)-(4S,7R)-[4,7-ethenylene-spiro[2.4]heptane]-5,6-dicarboxamide], the concentration giving a half-maximal response (EC50) in assay [1] is 0.61 nM; in assay [2], 382 nM.
Consider `O=C(NCCCN1CCCC1)[C@H]1[C@H](C(=O)NCc2ccc(Br)cc2)[C@@H]2C=C[C@H]1C21CC1` (racemic) [Example 236, (5R*)—N^5-(4-Bromo-phenyl-methyl)-(6R*)—N^6-(3-pyrrolidin-1-yl-propyl)-(4S*,7R*)-[4,7-ethenylene-spiro[2.4]heptane]-5,6-dicarboxamide], for which the values for the EC50 in assay [1] and in assay [2] were 49 nM and 292 nM, respectively.
For `O=C(NCCC(F)CN1CCCC1)[C@H]1[C@H](C(=O)Nc2ccc(Br)cc2)[C@@H]2C=C[C@H]1C21CC1` (stereo partly drawn) [Example 399, (5R)—N^5-(4-Bromophenyl)-(6R)—N^6-(3-fluoro-4-(pyrrolidin-1-yl)butyl)-(4S,7R)-[4,7-ethenylene-spiro[2.4]heptane]-5,6-dicarboxamide], the EC50 amounted to 5 nM in assay [1] and 4770 nM in assay [2].
Regarding `CC(C)Oc1ccc(CNC(=O)[C@H]2[C@H](C(=O)NCCCCN3CCCC3)[C@H]3C=C[C@@H]2C32CC2)cc1` (racemic) [Example 233, (5R*)—N^5-(4-Isopropoxy-phenyl-methyl)-(6R*)—N^6-(4-pyrrolidin-1-yl-butyl)-(4S*,7R*)-[4,7-ethenylene-spiro[2.4]heptane]-5,6-dicarboxamide], the EC50 in assay [1] was determined as 7220 nM; in assay [2], 197 nM.
In the case of `O=C(NCCCCN1CCCC1)[C@H]1[C@H](C(=O)NCc2cnc(Br)s2)[C@@H]2C=C[C@H]1C21CC1` [Example 312, (5R)—N^5-(2-Bromo-thiazol-5-yl-methyl)-(6R)—N^6-(4-pyrrolidino-butyl)-(4S,7R)-[4,7-ethenylene-spiro[2.4]heptane]-5,6-dicarboxamide], the half-maximal effective concentration (EC50) in assay [1] was found to be 213 nM; in assay [2], 208 nM.
For `COc1ccc(NC(=O)[C@H]2[C@H](C(=O)NCCC(N)=O)[C@H]3CC[C@@H]2C32CC2)cc1` [Example 293, (5R)—N^5-(4-Methoxyphenyl)-(6R)—N^6-(3-amino-3-oxopropyl)-(4S,7R)-[4,7-ethylene-spiro[2.4]heptane]-5,6-dicarboxamide], the figures for the EC50 in assay [1] and in assay [2] were 59 nM and 2370 nM, respectively.
In the case of `CCN1CCCC1CNC(=O)C1C(C(=O)Nc2ccc(Br)cc2)C2C=CC1C21CC1` (mixture of isomers) [Example 54, (5R*)—N^5-(4-Bromophenyl)-(6R*)—N^6-[(1-ethyl-pyrrolidin-2-yl)-methyl]-(4S*,7R*)-[4,7-ethenylene-spiro[2.4]heptane]-5,6-dicarboxamide], the EC50 in assay [1] came out at 16 nM; in assay [2] it was 2590 nM.
As for `CC(C)(C)OC(=O)CCCNC(=O)[C@H]1[C@H](C(=O)Nc2ccc(Br)cc2)[C@@H]2C=C[C@H]1C21CC1` (racemic) [Example 89, (5R*)—N^5-(4-Bromophenyl)-(6R*)—N^6-(3-tert-butoxycarbonyl-propyl)-(4S*,7R*)-[4,7-ethenylene-spiro[2.4]heptane]-5,6-dicarboxamide], the half-maximal effective concentration (EC50) in assay [1] came to 191 nM; in assay [2], 2470 nM.
Taken in the same sequence, the figures for `O=C(NCCCCN1CCCC1)[C@H]1[C@H](C(=O)NCc2ccc(F)cc2)[C@@H]2C=C[C@H]1C21CC1` (racemic) [Example 231, (5R*)—N^5-(4-Fluoro-phenyl-methyl)-(6R*)—N^6-(4-pyrrolidin-1-yl-butyl)-(4S*,7R*)-[4,7-ethenylene-spiro[2.4]heptane]-5,6-dicarboxamide] were 514 nM and 159 nM.
As for `O=C(Nc1ccc(Br)cc1)C1C(C(=O)NC2CCNC2)C2C=CC1C21CC1` (mixture of isomers) [Example 9, (5R*)—N^5-(4-Bromophenyl)-(6R*)—N^6-(pyrrolidin-3-yl)-(4S*,7R*)-[4,7-ethenylene-spiro[2.4]heptane]-5,6-dicarboxamide], the values for the half-maximal effective concentration (EC50) in assay [1] and in assay [2] were 0.94 nM and 1510 nM, respectively.
Turning to `O=C(NCCCCN1CCCC1)[C@H]1[C@H](C(=O)Nc2nc3ccccc3s2)[C@@H]2C=C[C@H]1C21CC1` (racemic) [Example 144, (5R*)—N^5-(Benzothiazol-2-yl)-(6R*)—N^6-(4-pyrrolidin-1-yl-butyl)-(4S*,7R*)-[4,7-ethenylene-spiro[2.4]heptane]-5,6-dicarboxamide], the half-maximal effective concentration (EC50) in assay [1] turned out to be 2270 nM; in assay [2], 324 nM.
In the case of `O=C(NCCC(=O)N1CCCC1)[C@H]1[C@H](C(=O)Nc2ccc(Br)cc2)[C@@H]2C=C[C@H]1C21CC1` (racemic) [Example 206, (5R*)—N^5-(4-Bromophenyl)-(6R*)—N^6-(3-pyrrolidino-3-oxopropyl)-(4S*,7R*)-[4,7-ethenylene-spiro[2.4]heptane]-5,6-dicarboxamide], the EC50 amounted to 31 nM in assay [1] and 2980 nM in assay [2].
Take `O=C(NCCCCN1CCCC1)[C@H]1[C@H](C(=O)Nc2ncc(Br)s2)[C@@H]2C=C[C@H]1C21CC1` (racemic) [Example 120, (5R*)—N^5-(5-Bromo-thiazol-2-yl)-(6R*)—N^6-(4-pyrrolidin-1-yl-butyl)-(4S*,7R*)-[4,7-ethenylene-spiro[2.4]heptane]-5,6-dicarboxamide]: the half-maximal effective concentration (EC50) is 17 nM in assay [1] and 363 nM in assay [2].
